Experimental data as given in PubChem BioAssay (NCI).
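Interpolation was linear, between the two tested concentrations surrounding the appropriate level; five concentrations were tested over 48 hours in 96-well plates. Abbreviation: GI50, concentration required for 50% inhibition of growth. TGI: concentration producing complete growth inhibition.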

Experiments:
Experiment in all cases: NCI anticancer screen, dose series, 48 h
[1] = test system: OVCAR-4 ovarian
[2] = test system: NCI/ADR-RES ovarian
[3] = test system: SK-OV-3 ovarian
[4] = test system: TK-10 renal
[5] = test system: SF-539 CNS
[6] = test system: UACC-62 melanoma
[7] = test system: IGROV1 ovarian
[8] = test system: SNB-19 CNS
[9] = test system: PC-3 prostate
[10] = test system: A498 renal
[11] = test system: ACHN renal
[12] = test system: MDA-MB-231 breast
[13] = test system: MDA-MB-435
[14] = test system: DU-145 prostate
[15] = test system: HOP-92 NSCLC
[16] = test system: NCI-H23 lung
[17] = test system: OVCAR-3 ovarian
[18] = test system: MALME-3M melanoma
[19] = test system: HCC-2998 colon
[20] = test system: MDA-MB-468 breast
[21] = test system: UO-31 renal
[22] = test system: A549 NSCLC
[23] = test system: RPMI-8226 leukemia
[24] = test system: K-562 leukemia
[25] = test system: HOP-62 NSCLC
[26] = test system: CAKI-1 renal
[27] = test system: SN12C renal
[28] = test system: BT-549 breast
[29] = test system: MOLT-4 leukemia
[30] = test system: COLO 205 colon
[31] = test system: KM12 colon
[32] = test system: M14 melanoma
[33] = test system: NCI-H226 lung
[34] = test system: SR leukemia
[35] = test system: SNB-75 CNS
[36] = test system: HL-60(TB) leukemia
[37] = test system: RXF 393 renal
[38] = test system: HS 578T breast
[39] = test system: CCRF-CEM leukemia
[40] = test system: OVCAR-5 ovarian
[41] = test system: EKVX NSCLC
[42] = test system: SF-268 CNS
[43] = test system: NCI-H460 lung
[44] = test system: T-47D breast
[45] = test system: SK-MEL-2 melanoma
[46] = test system: SK-MEL-28 melanoma

CN1CCN(c2ccc(Nc3nc(N4CCN(S(=O)(=O)c5ccc(Cl)cc5)CC4)c4sccc4n3)cc2)CC1 was tested, and the GI50 [1] was 14.9 µM, the TGI [1] was 38.7 µM and the GI50 [2] was 10.9 µM. For the same compound, the TGI [2] was 39.7 µM, the GI50 [3] was 26.8 µM and the TGI [3] was 69.2 µM. It also gave a GI50 [4] of 6.47 µM, a TGI [4] of 21.6 µM and a GI50 [5] of 1.69 µM. It also gave a TGI [5] of 3.16 µM, a GI50 [6] of 1.71 µM and a TGI [6] of 3.25 µM. For the same compound, the GI50 [7] was 14.5 µM, the TGI [7] was 44.8 µM and the GI50 [8] was 3.69 µM. For the same compound, the TGI [8] was 17.1 µM, the GI50 [9] was 4.01 µM and the TGI [9] was over 100 µM. It also gave a GI50 [10] of 17.5 µM, a TGI [10] of 31.6 µM and a GI50 [11] of 3.03 µM. It also gave a TGI [11] of 11.4 µM, a GI50 [12] of 1.71 µM and a TGI [12] of 3.27 µM. It also gave a GI50 [13] of 1.76 µM, a TGI [13] of 3.31 µM and a GI50 [14] of 3.36 µM. The TGI [14] was 10.8 µM, the GI50 [15] was 10.7 µM and the TGI [15] was 28.7 µM. It also gave a GI50 [16] of 19.1 µM, a TGI [16] of 66.3 µM and a GI50 [17] of 2.85 µM. The TGI [17] was 7.42 µM, the GI50 [18] was 1.64 µM and the TGI [18] was 3.03 µM. The GI50 [19] was 2.64 µM, the TGI [19] was 6.18 µM and the GI50 [20] was 1.64 µM. It also gave a TGI [20] of 3.14 µM, a GI50 [21] of 13.7 µM and a TGI [21] of 29.6 µM. The GI50 [22] was 4.35 µM, the TGI [22] was 24.9 µM and the GI50 [23] was 2.89 µM. The TGI [23] was 6.13 µM, the GI50 [24] was 2.16 µM and the TGI [24] was 6.04 µM. For the same compound, the GI50 [25] was 28.9 µM, the TGI [25] was 88.8 µM and the GI50 [26] was 11.6 µM. It also gave a TGI [26] of 27.8 µM, a GI50 [27] of 13.7 µM and a TGI [27] of 34.7 µM. For the same compound, the GI50 [28] was 20.8 µM, the TGI [28] was 58.7 µM and the GI50 [29] was 2.21 µM. It also gave a TGI [29] of 5.78 µM, a GI50 [30] of 2.67 µM and a TGI [30] of 7.54 µM. For the same compound, the GI50 [31] was 4.85 µM, the TGI [31] was 20 µM and the GI50 [32] was 1.85 µM. The TGI [32] was 3.62 µM, the GI50 [33] was 18.7 µM and the TGI [33] was 55.5 µM. For the same compound, the GI50 [34] was 1.92 µM, the TGI [34] was 4.82 µM and the GI50 [35] was 9.97 µM. It also gave a TGI [35] of 24.3 µM, a GI50 [36] of 2.1 µM and a TGI [36] of 4.47 µM. For the same compound, the GI50 [37] was 1.91 µM, the TGI [37] was 3.68 µM and the GI50 [38] was 13.1 µM. It also gave a TGI [38] of 46.7 µM, a GI50 [39] of 4.47 µM and a TGI [39] of 32.6 µM. It also gave a GI50 [40] of 15.6 µM, a TGI [40] of 39.5 µM and a GI50 [41] of 22 µM. It also gave a TGI [41] of 59.8 µM, a GI50 [42] of 13.5 µM and a TGI [42] of 39 µM. The GI50 [43] was 1.93 µM, the TGI [43] was 3.69 µM and the GI50 [44] was 7.17 µM. For the same compound, the TGI [44] was 35.9 µM, the GI50 [45] was 19.4 µM and the TGI [45] was 40.1 µM. The GI50 [46] was 1.73 µM and the TGI [46] was 3.36 µM.
